Measured values: paper PMC3985444 (Journal of Chemical Information and Modeling, 2014)

What was measured:
human 5-HT1A receptor = molecular target: T1, human 5-HT1A receptor (Homo sapiens, UniProt P08908); assay: Radioligand competition binding assay
T1 sequence (P08908 1-422): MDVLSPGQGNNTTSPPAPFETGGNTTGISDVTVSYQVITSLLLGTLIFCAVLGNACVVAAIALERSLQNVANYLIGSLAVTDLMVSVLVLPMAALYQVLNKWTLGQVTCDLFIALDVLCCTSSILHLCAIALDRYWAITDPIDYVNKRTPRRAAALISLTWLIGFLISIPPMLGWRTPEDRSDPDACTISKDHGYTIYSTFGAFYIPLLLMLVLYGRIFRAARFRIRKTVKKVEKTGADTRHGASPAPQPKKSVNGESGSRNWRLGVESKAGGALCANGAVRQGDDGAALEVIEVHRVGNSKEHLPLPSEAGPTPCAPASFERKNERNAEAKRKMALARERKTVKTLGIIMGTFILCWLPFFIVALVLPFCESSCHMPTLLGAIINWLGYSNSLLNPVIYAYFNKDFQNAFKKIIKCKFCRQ

dopamine receptors = conditions: cited from earlier work
5-HT2A = conditions: cited from earlier work
5-HT1B = conditions: cited from earlier work
5-HT1D = conditions: cited from earlier work

Row | Compound | Ki (human 5-HT1A receptor) [nM] | binding with dopamine receptors (dopamine receptors) | binding with 5-HT2A (5-HT2A) | binding to 5-HT1B (5-HT1B) | binding to 5-HT1D (5-HT1D)
1 | CN1CCCCC1CCN1c2ccccc2Sc2ccc([S+](C)[O-])cc21 (stereo not shown) [Mesoridazine] | 33.1 | potent binding | potent binding |  | 
2 | CC[C@@H](CO)NC(=O)[C@@H]1C=C2c3cccc4c3c(cn4C)C[C@H]2N(C)C1 [Methysergide] | 26 |  |  |  | 
3 | CN1C[C@@H](CO)C=C2c3cccc4[nH]cc(c34)C[C@H]21 [ST057540, [(8α)-6-methyl-9,10-didehydroergolin-8-yl]methanol] | 2.3 |  |  | high-affinity binding | high-affinity binding
